Read-outs that look alike come from different tables or passages of the source.
How the values were obtained:
[1] = test system: surgery patients at the age of 65 or older; conditions: in vivo
[2] = test system: patients; experiment: Clinical trials of the Examples taken together (85 cases of patients in total); conditions: dosing regimen of the invention, amount per kg equal to or more than in the preceding animal tests
[3] = test system: surgery patients at the age of 20 or older and younger than 65; conditions: in vivo
[4] = test system: surgery patients at the age of 20 or older and younger than 65; conditions: in vivo; remark: listed apart in the source
[5] = test system: surgery patients at the age of 65 or older; conditions: in vivo; remark: listed apart in the source
[6] = test system: non-human animal (for example, a monkey); experiment: Continuous intravenous administration to a non-human animal, vasostimulant; format: in vivo; conditions: continuous i.v. 1 mg/kg/h to 2 mg/kg/h for several hours (4 to 6 hours), in the neighborhood of an effective dose
From the text: It can be said that this is an astonishingly excellent effect provided by the dosing regimen of the invention.

COC(=O)CC[C@@H]1N=C(c2ccccn2)c2cc(Br)ccc2-n2c(C)cnc21.O=S(=O)(O)c1ccccc1 [Compound B, Methyl 3-[(4S)-8-bromo-1-methyl-6-(2-pyridinyl)-4H-imidazo[1,2-a][1,4]benzodiazepin-4-yl]propanoate benzenesulfonate]
Completion rate of endotracheal intubation [1]: 100%
Other side effects to be concerned or abnormal laboratory data [1]: not observed
Vasostimulant [2]: does not cause the vasostimulant
Other side effects to be concerned or abnormal laboratory data [3]: not observed
Number of test subjects who developed hypotension, adverse event ([4]; human): 3 patients
Proportion of test subjects who developed hypotension as a side effect ([4]; human): 10%
Average time until the patient opened eyes [4]: 13.9 min
Average time until the patient stated the date of birth [4]: 21.5 min
Average time until the patient were allowed to leave the surgery room [4]: 25.5 min
Average time until the trachea was extubated [4]: 16.4 min
Other side effects to be concerned or abnormal laboratory data [4]: not observed
Recollection during anesthesia ([4]; 1 mg/kg): no recollection
Salvage treatment for sedation during surgery ([4]; 1 mg/kg): without performing a salvage treatment
Signs of awakening during the surgery ([4]; 1 mg/kg): not observed
Completion rate of endotracheal intubation ([4]; 12 mg/kg): 100%
Time until loss of consciousness (range of actual values) ([4]; 12 mg/kg): (48-120) sec
Number of test subjects who developed hypotension, adverse event ([5]; human): 3 Patients
Proportion of test subjects who developed hypotension as a side effect ([5]; human): 20%
Average time until the patient opened eyes [5]: 10.9 min
Average time until the patient stated the date of birth [5]: 18.5 min
Average time until the patient were allowed to leave the surgery room [5]: 19.1 min
Average time until the trachea was extubated [5]: 13.6 min
Other side effects to be concerned or abnormal laboratory data [5]: not observed
Recollection during anesthesia ([5]; 1 mg/kg): no recollection
Salvage treatment for sedation during surgery ([5]; 1 mg/kg): without performing a salvage treatment
Signs of awakening during the surgery ([5]; 1 mg/kg): not observed
Completion rate of endotracheal intubation ([5]; 4 mg/kg): 100%
Time until loss of consciousness (range of actual values) ([5]; 4 mg/kg): (70-135) sec
Vasostimulant [6]: vasostimulant is observed
